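96-well plates; 48 h exposure; 5 concentrations. Endpoints by linear interpolation between flanking doses. Not reached: highest tested concentration assigned. GI50 is the concentration that inhibits growth by half.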 Calls of active or inactive are those of the source. Rule as the data show it: active = GI50 up to about 1.1 µM and inactive = higher.
Columns and labels:
Assay in all cases: growth of human tumour cells (NCI), 48 h
CCRF-CEM = tested on: CCRF-CEM
EKVX = tested on: EKVX
UACC-257 = tested on: UACC-257
U-251 = tested on: U-251
A498 = tested on: A498
SF-268 = tested on: SF-268
K562 = tested on: K562
UACC-62 = tested on: UACC-62
MOLT-4 = tested on: MOLT-4
SNB-19 = tested on: SNB-19
HL-60 = tested on: HL-60
COLO 205 = tested on: COLO 205
SK-MEL-5 = tested on: SK-MEL-5
TK-10 = tested on: TK-10
SF-295 = tested on: SF-295
OVCAR-4 = tested on: OVCAR-4
KM12 = tested on: KM12

Measured: GI50

COC(=O)C(=O)OC1(C(C)=O)CC2(c3ccccc3)OC1(c1ccccc1)c1ccccc12 (stereo not given)
inactive: CCRF-CEM 33.6 µM | EKVX 20.7 µM | UACC-257 16.2 µM | U-251 16.4 µM | A498 18.6 µM | SF-268 20 µM | K562 27.7 µM | UACC-62 14.9 µM | MOLT-4 22 µM | SNB-19 19.9 µM | HL-60 33.5 µM | COLO 205 15.8 µM | SK-MEL-5 15 µM | TK-10 29.4 µM | SF-295 14.5 µM | OVCAR-4 20.2 µM

Cc1nc2ccccc2c(=O)n1NC(=S)Nc1ccccc1
inactive: CCRF-CEM > 100 µM | UACC-257 > 100 µM | U-251 > 100 µM | A498 > 100 µM | SF-268 > 100 µM | K562 > 100 µM | UACC-62 > 100 µM | MOLT-4 > 100 µM | KM12 > 100 µM | HL-60 > 100 µM | COLO 205 > 100 µM | SK-MEL-5 > 100 µM | TK-10 > 100 µM | SF-295 > 100 µM | OVCAR-4 91.2 µM

Cc1nc2sccn2c1C(=O)NNC(N)=S
inactive: CCRF-CEM > 100 µM | EKVX > 100 µM | UACC-257 > 100 µM | U-251 > 100 µM | SF-268 > 100 µM | K562 > 100 µM | UACC-62 > 100 µM | MOLT-4 > 100 µM | SNB-19 > 100 µM | KM12 > 100 µM | HL-60 > 100 µM | COLO 205 > 100 µM | SK-MEL-5 > 100 µM | TK-10 > 100 µM | SF-295 > 100 µM

CCOc1ncnc2ccc(Cl)c(I)c12
inactive: CCRF-CEM 70.6 µM | EKVX 11.2 µM | UACC-257 > 100 µM | U-251 > 100 µM | A498 31 µM | SF-268 31.2 µM | K562 88.7 µM | UACC-62 46.5 µM | SNB-19 89.1 µM | KM12 91 µM | HL-60 38.8 µM | COLO 205 > 100 µM | SK-MEL-5 59.8 µM | TK-10 62.7 µM | SF-295 > 100 µM | OVCAR-4 56.6 µM

Clc1ccccc1C1SCc2nc3ccccc3n21 (stereo not given)
inactive: CCRF-CEM 30.3 µM | EKVX 22.6 µM | U-251 22.8 µM | SF-268 37.1 µM | K562 21.6 µM | UACC-62 > 10 µM | MOLT-4 23.6 µM | SNB-19 12.4 µM | KM12 30.8 µM | HL-60 13 µM | COLO 205 49.7 µM | SK-MEL-5 17.9 µM | TK-10 23 µM | SF-295 28.8 µM | OVCAR-4 18 µM

C=C(COC(C)=O)CC(/C=C(\C)CCC=C(C)C)OC(C)=O (stereo not given)
inactive: CCRF-CEM 70.5 µM | EKVX > 100 µM | U-251 > 100 µM | A498 > 100 µM | SF-268 > 100 µM | K562 > 100 µM | UACC-62 > 100 µM | MOLT-4 48.4 µM | SNB-19 > 100 µM | KM12 > 100 µM | HL-60 74.5 µM | COLO 205 > 100 µM | SK-MEL-5 > 100 µM | TK-10 > 100 µM | SF-295 > 100 µM | OVCAR-4 > 100 µM

CC(C)=CC(=O)C1c2cccc(O)c2C(=O)c2c(O)cc(C)cc21 (stereo not given)
inactive: CCRF-CEM 2.55 µM | EKVX 12.6 µM | UACC-257 2.88 µM | U-251 1.73 µM | A498 10.7 µM | SF-268 2.12 µM | K562 2.65 µM | MOLT-4 4.23 µM | SNB-19 2.12 µM | KM12 1.63 µM | HL-60 3.24 µM | COLO 205 1.79 µM | SK-MEL-5 2.05 µM | TK-10 2.42 µM | SF-295 1.84 µM | OVCAR-4 2.13 µM

COC(=O)C(C(=O)C(=O)NC1=C(Cl)C(=O)c2ccccc2C1=O)c1csc(-n2nc(-c3ccccc3)cc2-c2ccccc2)n1 (stereo not given)
inactive: CCRF-CEM 31 µM | EKVX 9.66 µM | UACC-257 > 100 µM | U-251 > 100 µM | A498 > 100 µM | SF-268 24.3 µM | K562 20.9 µM | UACC-62 44.1 µM | MOLT-4 > 100 µM | SNB-19 > 100 µM | KM12 > 100 µM | HL-60 > 100 µM | COLO 205 > 100 µM | TK-10 > 100 µM | SF-295 > 100 µM | OVCAR-4 > 100 µM

COC1OC(COCc2ccc(Cl)cc2)C(OCc2ccc(Cl)cc2)C1O (stereo not given)
inactive: CCRF-CEM 19.4 µM | EKVX 19.4 µM | UACC-257 16.3 µM | U-251 15.6 µM | SF-268 17.1 µM | K562 16.2 µM | UACC-62 16.2 µM | MOLT-4 20.2 µM | SNB-19 18 µM | KM12 15 µM | HL-60 11.6 µM | COLO 205 19 µM | SK-MEL-5 15.3 µM | TK-10 25.5 µM | SF-295 18 µM | OVCAR-4 20.6 µM

CCCCCCC(C)OC(=O)/C=C(\CC(=O)OC(C)CCCCCC)C(=O)OC(C)CCCCCC (stereo not given)
inactive: EKVX > 100 µM | UACC-257 > 100 µM | U-251 > 100 µM | A498 > 100 µM | SF-268 > 100 µM | UACC-62 > 100 µM | MOLT-4 > 100 µM | HL-60 > 100 µM | COLO 205 > 100 µM | SK-MEL-5 > 100 µM | TK-10 > 100 µM | SF-295 > 100 µM | OVCAR-4 > 100 µM

COC12OCCN(CCO)C1=CC(=O)C1(C)N=NC(C)C12 (stereo not given)
inactive: CCRF-CEM > 100 µM | EKVX > 100 µM | UACC-257 > 100 µM | U-251 > 100 µM | A498 > 100 µM | K562 > 100 µM | UACC-62 > 100 µM | MOLT-4 > 100 µM | KM12 > 100 µM | COLO 205 > 100 µM | SK-MEL-5 > 100 µM | TK-10 > 100 µM | SF-295 > 100 µM

COc1ccc2nc(NC(=O)C(=O)CC(=O)c3ccc(Cl)cc3)sc2c1
inactive: CCRF-CEM > 100 µM | EKVX 48.1 µM | UACC-257 > 100 µM | U-251 48.4 µM | A498 > 100 µM | SF-268 85.3 µM | UACC-62 68.7 µM | MOLT-4 > 100 µM | SNB-19 95.5 µM | KM12 35.1 µM | HL-60 > 100 µM | COLO 205 > 100 µM | SK-MEL-5 > 100 µM | TK-10 > 100 µM | SF-295 56.9 µM | OVCAR-4 20.9 µM

CSCC1CC(c2ccc(Cl)cc2)=NO1 (stereo not given)
inactive: CCRF-CEM > 100 µM | EKVX > 100 µM | UACC-257 > 100 µM | U-251 > 100 µM | A498 > 100 µM | SF-268 > 100 µM | K562 > 100 µM | UACC-62 > 100 µM | MOLT-4 > 100 µM | KM12 > 100 µM | HL-60 > 100 µM | COLO 205 > 100 µM | SK-MEL-5 > 100 µM | TK-10 > 100 µM | SF-295 > 100 µM | OVCAR-4 > 100 µM

OC/C=C(\I)CCCOCOCc1ccccc1
inactive: CCRF-CEM 20.7 µM | EKVX 36.5 µM | U-251 23.4 µM | A498 60.8 µM | SF-268 27.7 µM | K562 40 µM | UACC-62 34.6 µM | MOLT-4 3.1 µM | SNB-19 52.8 µM | KM12 > 100 µM | HL-60 15.9 µM | COLO 205 67.1 µM | SK-MEL-5 22.1 µM | TK-10 > 100 µM | SF-295 36.1 µM | OVCAR-4 24.5 µM

CCCCCCCCCCCCC(Br)C(=O)NCC(N)=O (stereo not given)
inactive: CCRF-CEM 2.45 µM | EKVX 20.6 µM | UACC-257 11.4 µM | U-251 11.6 µM | A498 13.6 µM | SF-268 3.42 µM | UACC-62 5.86 µM | SNB-19 11.2 µM | KM12 14.2 µM | HL-60 4.57 µM | COLO 205 21.2 µM | SK-MEL-5 4.57 µM | TK-10 18.1 µM | SF-295 14.3 µM | OVCAR-4 3.55 µM

O=C(CC(=O)C(F)(F)F)c1csc2ccccc12
inactive: CCRF-CEM 20.4 µM | EKVX 33.4 µM | UACC-257 32.9 µM | U-251 34.7 µM | SF-268 30.8 µM | K562 24.8 µM | UACC-62 32.2 µM | MOLT-4 17.8 µM | SNB-19 37.2 µM | KM12 38.9 µM | HL-60 > 10 µM | COLO 205 38.5 µM | SK-MEL-5 26.9 µM | TK-10 4.28 µM | SF-295 10.4 µM

O=c1oc2c3ccc4ccccc4c3n(CCN3CCOCC3)c2c2ccccc12
inactive: CCRF-CEM 1.48 µM | EKVX 14.8 µM | UACC-257 > 100 µM | SF-268 19.7 µM | K562 3.89 µM | UACC-62 3.68 µM | MOLT-4 1.69 µM | SNB-19 > 100 µM | KM12 > 100 µM | HL-60 87.9 µM | COLO 205 > 100 µM | TK-10 > 100 µM | SF-295 6.38 µM | OVCAR-4 > 100 µM

O=C1Nc2nc3ccccc3n2N=C2CCCC12 (stereo not given)
inactive: CCRF-CEM > 100 µM | EKVX > 100 µM | UACC-257 > 100 µM | U-251 > 100 µM | A498 > 100 µM | SF-268 > 100 µM | K562 > 100 µM | UACC-62 > 100 µM | MOLT-4 > 100 µM | SNB-19 > 100 µM | KM12 > 100 µM | COLO 205 > 100 µM | SK-MEL-5 > 100 µM | TK-10 > 100 µM | SF-295 > 100 µM | OVCAR-4 > 100 µM

From ChEMBL document CHEMBL1201862, “PubChem BioAssay data set” (2004)
